Measurements published in article PMC11719397, “Monophthalates of betulinic acid and related pentacyclic triterpenes inhibit efficiently the SOS-mediated nucleotide exchange and impact PI3K/AKT signaling in oncogenic K-RAS4B proteins” (RSC Advances, 2025).
In brackets after ≈: the same amount, converted by molar mass.

Experiments:
[1] = target: K-RAS4B wild-type (Homo sapiens, UniProt P01116); assay: Nucleotide exchange assay (SOS1-mediated GDP/GTP exchange, GDP-Glo), K-RAS4B wild-type; assay type: biochemical; conditions: K-RAS4B GDP/GTP exchange; eight data points, at least three determinations; (*) single determination
[2] = target: T1, K-RAS4B^G12D (Homo sapiens, UniProt P01116, G12D); assay: biochemical; conditions: for IC50: K-RAS4B GDP/GTP exchange, eight data points, at least three determinations
Target sequence in this assay (P01116 1-188 isoform P01116-2 G12D): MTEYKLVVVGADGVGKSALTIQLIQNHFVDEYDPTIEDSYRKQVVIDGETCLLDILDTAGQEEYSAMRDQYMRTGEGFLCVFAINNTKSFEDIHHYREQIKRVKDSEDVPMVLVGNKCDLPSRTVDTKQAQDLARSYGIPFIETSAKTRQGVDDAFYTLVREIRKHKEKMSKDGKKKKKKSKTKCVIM

[3] = target: T2, K-RAS4B^wt (Homo sapiens, UniProt P01116); assay: NanoBRET target engagement assay, K-RAS4B^wt (displacement of BI2852 tracer from SI/SII site); assay type: cell-based; conditions: live cells; displacement of BI2852 from the K-Ras4B SI/II binding-site; read-out: K-RAS4B^wt NanoBRET TE KD
T2 construct: a fusion protein of LgBiT and full-length RAS; a fusion protein of SmBiT(q) and full-length RAS in cells; expressed in transfected cells; host or cells: HEK239T (so in the source)
From the text: (§1) To obtain further information on the mode of action, selected GDP/GTP exchange inhibitors were studied in additional assays (Table 3). A target engagement assay, which is based on bioluminescence resonance energy transfer (BRET), was used to measure target engagement at protein complexes in live cells (Fig. 5a). The BRET effect results from an energy transfer between the target luciferase fusion protein and a cell-permeable fluorescent tracer in intact cells.
(§2) Fig. 5 Schematic illustrations of the RAS cellular target engagement and RAS:SOS protein–protein interaction assay. (a) NanoBRET target engagement (TE) assay: when the fusion proteins LgBiT-RAS and SmBiT(q)-RAS interact in live-cells, they form an active luciferase as a BRET donor. The BRET receptor is a fluorescent NanoBRET® tracer that binds specifically to K-RAS. K-RAS binders displace the tracer and reduce the BRET signal in a dose-dependent manner.
(§3) The NanoBRET® TE Intracellular RAS Assay uses NanoBiT® Technology, a structural complementation system comprised of a large luciferase subunit (LgBiT) and a small complementary peptide (SmBiT(q)). Specifically, a fusion protein of LgBiT and full-length RAS is co-expressed with a fusion protein of SmBiT(q) and full-length RAS in cells. When the RAS proteins interact and form multimers, the LgBiT and SmBiT(q) subunits come together to form an active luciferase enzyme that serves as the BRET donor. The energy acceptor is a cell-permeable fluorescent NanoBRET® tracer that binds specifically to RAS. […] After mixing the plate for 1 min and incubation at room temperature for 15 min 1 μL of NanoBRET TE RAS Tracer 01 (final concentration 1 μM) was added followed by another mixing step. After 2 h incubation (37 °C, 5% CO2) and 15 min at room temperature 5 μL of NanoBRET™ Nano-Glo® substrate was added followed by a mixing step.

[4] = Solubility
[5] = target: (GTP)K-RAS4B^wt:SOS1 complex (Homo sapiens, UniProt P01116+Q07889); assay: HTRF K-RAS^wt:SOS protein-protein interaction assay
Protocol: The interaction of (GTP)K-RAS4B^wt and SOS was measured with a HTRF assay using an SOS-specific antibody labeled with terbium cryptate as HTRF (homogeneous time-resolved fluorescence) donor and a K-RAS4B^wt specific antibody labeled with an HTRF acceptor (XL665).[52]
To test the compounds effect on the interaction of K-RAS and SOS1 proteins a commercial assay from Revvity (product code 64[sequence]) was used. The K-RAS WT/SOS1 PPI assay includes tagged human recombinant partners (K-RAS WT and SOS1) and labelled anti-tag reagents for HTRF detection. Without an inhibitor, K-RAS WT loaded with GTP binds to SOS1, and the binding of each detection reagent to its tagged target generates an HTRF signal. In the presence of K-RAS WT/SOS1 inhibitors or GTP competitors, the HTRF signal decreases.
After an incubation step for 10 min at room temperature 3 μL Tag1-KRAS protein was added followed by 7.5 μL detection mix containing anti-Tag2 antibody labeled with Terbium cryptate and anti-Tag1 antibody labeled with XL665. […] IC50 values were determined from the sigmoidal dose response curves with the Scigilian Analyze software (Scigilian, Monteral, Canada).

[6] = target: T1, K-RAS4B^G12D; assay: cell-based; parameters: a fusion protein of LgBiT and full-length RAS; a fusion protein of SmBiT(q) and full-length RAS in cells; expressed in transfected cells; host or cells: HEK239T (so in the source); conditions: live cells; displacement of BI2852 from the K-Ras4B SI/II binding-site; read-out: K-RAS4B^G12D NanoBRET TE KD
From the text: as §1, §2, §3
Target sequence in this assay (P01116 1-188 isoform P01116-2 G12D): as above
Target sequence in this assay (P01116 1-188 isoform P01116-2 G12D): as above

[7] = target: K-RAS4B G12V (Homo sapiens, UniProt P01116, G12V); assay: Nucleotide exchange assay (SOS1-mediated GDP/GTP exchange, GDP-Glo), K-RAS4B G12V; assay type: biochemical; conditions: eight data points, at least three determinations, (*) single determination
[8] = test system: ERK phosphorylation in SNU-1 cells (K-RAS4B^G12D); assay: HTRF ERK phosphorylation assay in SNU-1 cells; assay type: cell-based; conditions: Homo sapiens, SNU1, read-out: SNU-1 pERK inhibition IC50
Protocol: (§4) For selected betulinic acid derivatives quantitative ERK and AKT phosphorylation was measured in SNU-1 (K-RAS4B^G12D) and A375 cells (K-RAS4B^wt) to determine whether pentacyclic triterpenes act via the RAS-RAF-MEK-ERK or the RAS-PI3K-PDK1-AKT downstream cascade (Table 2). The betulinic acid derivatives tested, had no activity on the ERK pathway, but inhibited AKT phosphorylation with micromolar IC50 values in agreement with literature reports.[50,51] […] No activity was detected in A375 cells carrying a BRAF but no K-RAS mutation.
(§5) SNU-1 cells harbouring the K-RASG12D mutation (primary carcinoma of the stomach), were grown in RPMI medium with 10% FBS (fetal bovine serum) and 1% L-Gln. Cells were plated in white small volume cell culture 384 well microplates (Greiner BioOne GmbH) at a density of 50.000 cells per well/6 μL in RPMI medium with 1% L-glut (serum-free medium). The plated cells were placed in a high humidity incubator (37 °C, 5% CO2 and 90% humidity) to avoid evaporation of the small amount of medium for 3 hours before the compounds were added. With the Echo520 liquid handler the cells were treated with a 3-fold 8-point serial dilution of the compounds, with a top final concentration of 330 μM and a final DMSO concentration of 1%. After compound transfer, cells were incubated for 1 hour in the high humidity incubator before the cells were treated with 3 μL of 9 nM EGF diluted in serum-free medium (final EGF concentration in the well 3 nM) for 15 minutes. The lysis buffer from the Phospho-ERK 1/2 (Thr202/Tyr204)- and the Total ERK1/2 LANCE Ultra TR-FRET Cellular Detection Kit (PerkinElmer Inc.) was prepared to a 4-fold concentration in water. Then 3 μL of the lysis buffer were added to each well and the plates were shaken at 300 rpm for 30 minutes at room temperature. During this incubation the antibody detection mix was prepared according to the manufacturer's protocol. In the final step 3 μL of antibody detection mix were added to each well. The plates were sealed with an aluminium sticky foil and incubated over night at room temperature for 20 hours. The detection was performed with the EnVision2104 Multilabel Reader.

[9] = test system: AKT phosphorylation in SNU-1 cells (K-RAS4B^G12D); assay: HTRF AKT phosphorylation assay in SNU-1 cells; assay type: cell-based; conditions: Homo sapiens, SNU1, read-out: SNU-1 pAKT inhibition IC50
Protocol: as §4, §5

[10] = test system: ERK phosphorylation in A375 cells (K-RAS4B^wt); assay: HTRF ERK phosphorylation assay in A375 cells; assay type: cell-based; conditions: Homo sapiens, A-375; A375 cells (K-RAS4B^wt, BRAF mutation); two determinations; read-out: A375 pERK inhibition IC50
Protocol: as §4, §5

[11] = test system: AKT phosphorylation in A375 cells (K-RAS4B^wt); assay: HTRF AKT phosphorylation assay in A375 cells; assay type: cell-based; conditions: Homo sapiens, A-375; A375 cells (K-RAS4B^wt, BRAF mutation); two determinations; read-out: A375 pAKT inhibition IC50
Protocol: as §4, §5

[12] = test system: K-RAS4B wild-type; assay: Nucleotide exchange assay (SOS1-mediated GDP/GTP exchange, GDP-Glo), K-RAS4B wild-type; assay type: biochemical; conditions: GDP/GTP exchange IC50 of wild-type versus G12D/G12V mutants

(GTP)K-RAS4B^wt:SOS1 complex, sequence (P01116 1-188 isoform P01116-2): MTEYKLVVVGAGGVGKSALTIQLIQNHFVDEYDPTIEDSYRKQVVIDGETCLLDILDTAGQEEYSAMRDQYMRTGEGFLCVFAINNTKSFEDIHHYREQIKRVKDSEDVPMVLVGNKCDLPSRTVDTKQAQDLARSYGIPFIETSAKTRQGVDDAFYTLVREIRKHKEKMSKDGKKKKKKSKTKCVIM
(GTP)K-RAS4B^wt:SOS1 complex, sequence (Q07889 564-1049 limits assumed): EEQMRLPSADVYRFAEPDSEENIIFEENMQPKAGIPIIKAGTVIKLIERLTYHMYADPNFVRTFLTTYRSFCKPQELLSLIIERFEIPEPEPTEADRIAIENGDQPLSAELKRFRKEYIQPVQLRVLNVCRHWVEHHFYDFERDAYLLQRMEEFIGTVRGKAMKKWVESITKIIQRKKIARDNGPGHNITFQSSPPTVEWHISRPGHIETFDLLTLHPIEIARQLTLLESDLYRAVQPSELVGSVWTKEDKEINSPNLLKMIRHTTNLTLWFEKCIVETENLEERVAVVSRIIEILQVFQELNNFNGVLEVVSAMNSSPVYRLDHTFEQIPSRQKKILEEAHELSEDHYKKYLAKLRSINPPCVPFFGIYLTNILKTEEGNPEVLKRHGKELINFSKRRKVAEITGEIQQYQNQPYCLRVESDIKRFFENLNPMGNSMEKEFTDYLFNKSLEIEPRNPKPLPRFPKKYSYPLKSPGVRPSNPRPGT
K-RAS4B wild-type (Homo sapiens, UniProt P01116), sequence (P01116 1-188 isoform P01116-2): as the sequence (P01116 1-188 isoform P01116-2) above
K-RAS4B G12V, sequence (P01116 1-188 isoform P01116-2 G12V): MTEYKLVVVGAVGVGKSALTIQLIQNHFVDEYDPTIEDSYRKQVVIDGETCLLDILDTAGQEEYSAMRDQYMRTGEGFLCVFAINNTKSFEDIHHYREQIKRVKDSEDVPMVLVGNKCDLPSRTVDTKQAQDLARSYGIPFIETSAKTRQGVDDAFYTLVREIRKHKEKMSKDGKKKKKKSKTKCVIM
T2 sequence (P01116 1-188 isoform P01116-2): as the sequence (P01116 1-188 isoform P01116-2) above
T2 sequence (P01116 1-188 isoform P01116-2): as above

Structure (SMILES)	IC50 [1] [µM]	IC50 [2] [nM]	Kd [3] [µM]	solubility [4] [µM]	Kd [5] [µM]	Kd [6] [µM]	IC50 [7] [µM]	IC50 [8] [µM]	IC50 [9] [µM]	IC50 [10] [mM]	IC50 [11] [mM]	selectivity factor, mutant versus K-RAS4B^wt [12]	inhibition of GDP/GTP exchange (in words) ([2]; K-RAS4B form mostly not given, inactive = IC50 > 100 μM (Fig. 3 legend))
C=C(C)[C@@H]1CC[C@]2(C(=O)O)CC[C@]3(C)[C@H](CC[C@@H]4[C@@]5(C)CC[C@H](OC(=O)c6sccc6C(=O)O)C(C)(C)[C@@H]5CC[C@]43C)[C@@H]12 [Compound 18]	1.27 ± 0.69	1830 ± 1450	21.8	255 (≈ 156 µg/mL)	> 50	20.1	–	–	–	–	–	–	–
C=C(C)[C@@H]1CC[C@]2(C(=O)O)CC[C@]3(C)[C@H](CC[C@@H]4[C@@]5(C)CC[C@H](OC(=O)c6nccnc6C(=O)O)C(C)(C)[C@@H]5CC[C@]43C)[C@@H]12 [Compound 23]	23.3 ± 2.9	11800 ± 1000	–	434 (≈ 263 µg/mL)	–	–	9.61 ± 4.82	> 1000	61.7	> 1	> 1	–	–
C=C(C)[C@@H]1CC[C@]2(COC(=O)/C=C\C(=O)O)CC[C@]3(C)[C@H](CC[C@@H]4[C@@]5(C)CC[C@H](O)C(C)(C)[C@@H]5CC[C@]43C)[C@@H]12 [Compound 30]	69.2 ± 6.8	6800 ± 2320	–	–	–	–	3.19 ± 0.19	–	–	–	–	15–20	–
C[C@H]1[C@H](C)CC[C@]2(C(=O)O)CC[C@]3(C)C(=CC[C@@H]4[C@@]5(C)CC[C@H](OC(=O)c6cc(F)c(F)cc6C(=O)O)C(C)(C)[C@@H]5CC[C@]43C)[C@H]12 [Compound 37]	3.94 ± 1.02	2530 ± 630	–	220 (≈ 141 µg/mL)	> 50	16.6	2.15 ± 0.31	–	–	–	–	–	–
C=C(C)[C@@H]1CC[C@]2(C(=O)O)CC[C@]3(C)[C@H](CC[C@@H]4[C@@]5(C)CC[C@H](OC(=O)c6cc(F)c(F)cc6C(=O)O)C(C)(C)[C@@H]5CC[C@]43C)[C@@H]12 [Compound 25]	39.1 ± 5.4	5000 ± 910	–	240 (≈ 154 µg/mL)	–	–	9.79 ± 3.41	> 300	18.1	> 1	> 1	4–6	–
C=C(C)[C@@H]1CC[C@]2(C(=O)O)CC[C@]3(C)[C@H](CC[C@@H]4[C@@]5(C)CC[C@H](OC(=O)c6c(F)ccc(F)c6C(=O)O)C(C)(C)[C@@H]5CC[C@]43C)[C@@H]12 [Compound 24]	15.7 ± 4.3	8630 ± 3720	–	378 (≈ 242 µg/mL)	–	–	15.4 ± 2.9	134	13	> 1	> 1	–	–
C=C(C)[C@@H]1CC[C@]2(COC(=O)CCC(=O)O)CC[C@]3(C)[C@H](CC[C@@H]4[C@@]5(C)CC[C@H](OC(=O)c6cc(F)c(F)cc6C(=O)O)C(C)(C)[C@@H]5CC[C@]43C)[C@@H]12 [Compound 34]	1.18 ± 0.02	660 ± 130	–	410 (≈ 298 µg/mL)	> 100	> 100	2.85 ± 0.14	–	–	–	–	–	–
C[C@H]1[C@H](C)CC[C@]2(C(=O)O)CC[C@]3(C)C(=CC[C@@H]4[C@@]5(C)CC[C@H](OC(=O)c6c(F)ccc(F)c6C(=O)O)C(C)(C)[C@@H]5CC[C@]43C)[C@H]12 [Compound 36]	3.46 ± 1.94	2640 ± 1750	–	424 (≈ 272 µg/mL)	> 50	> 50	2.52 ± 0.99	–	–	–	–	–	–
C=C(C)[C@@H]1CC[C@]2(C(=O)O)CC[C@]3(C)[C@H](CC[C@@H]4[C@@]5(C)CC[C@H](OC(=O)c6cc(OC)c(OC)cc6C(=O)O)C(C)(C)[C@@H]5CC[C@]43C)[C@@H]12 [Compound 26]	> 100	36100 ± 14700	–	158 (≈ 105 µg/mL)	–	–	26.4 ± 3.9	> 300	83.7	> 1	> 1	–	only moderate activity
C=C(C)[C@@H]1CC[C@]2(COC(=O)CCC(=O)O)CC[C@]3(C)[C@H](CC[C@@H]4[C@@]5(C)CC[C@H](OC(=O)CCC(=O)O)C(C)(C)[C@@H]5CC[C@]43C)[C@@H]12 [Compound 32]	1.01 ± 0.31	710 ± 180	40.8	–	> 100	29.1	1.37 ± 0.28	–	–	–	–	–	–
C=C(C)[C@@H]1CC[C@]2(COC(=O)CCC(=O)O)CC[C@]3(C)[C@H](CC[C@@H]4[C@@]5(C)CC[C@H](OC(=O)c6c(F)ccc(F)c6C(=O)O)C(C)(C)[C@@H]5CC[C@]43C)[C@@H]12 [Compound 33]	2.09 ± 0.59	1450 ± 930	–	416 (≈ 302 µg/mL)	37.4	26.4	2.13 ± 0.87	–	–	–	–	–	–
